In patent US20080226685A1, “Product and Method for Controlling Flying Insects” (Reckitt Benckiser (Australia) Pty Limited, priority 2003, published 2008):
Read-outs that look alike come from different tables or passages of the source.

What was measured:
[1] = cited from earlier work
[2] = Emanation rate from 18 gsm paper dosed with different solvents (Example 9); type: physicochemical; details: 14 mg on A4 18 gsm tissue paper, 28° C.
Description: A study of the metofluthrin emanation rate from 18 gsm paper dosed with different solvents was made.
Tissue paper (18 gsm) having an effective surface area of 1250 cm^2 (A4) was dosed with metofluthrin (14 mg) prepared in a range of solvents. The papers were then aged in a chamber at 28° C. with low airflow for up to a maximum of 168 hours. The amount of metofluthrin remaining on the paper substrate was measured from time 0 hours to 168 hours. The following solvents were used:
The inventors have concluded that linear release kinetics are observed for metofluthrin emanating from paper substrates and accordingly, the line of best fit was fitted to obtain the linear equation to enable the rate of emanation to be determined: […]

[3] = Stability and packaging suitability, storage at 55° C. (Example 10); type: physicochemical
Description: The stability and packaging suitability of various materials was studied. In these studies, metofluthrin (14 mg) was applied to A4 sized 30 gsm paper substrates via wet and dry application at ambient temperature. The samples were placed in pouches prepared from the packaging materials under investigation, sealed tightly and stored at 55° C. After periods of one and two weeks, samples were removed from storage and the dosed paper substrates were measured for metofluthrin content. The packaging materials studied were glass, PVC, amorphous PET (APET), crystalline PET (CPET), aluminium foil, heat sealable polyester films, acrylonitrile methyl acrylate copolymer and PEPET. For the wet dosing of metofluthrin on the paper substrate, the metofluthrin was dissolved in Exxsol D80 or Norpar 12 and the resulting solution applied to the substrate. For dry application, the metofluthrin was dissolved in acetone/ethanol (1:1 by volume) and applied to the substrate. The solvent was then allowed to evaporate over a period of 5-10 minutes.

[4] = Emanation rate from 18 gsm paper honeycomb, wet dosed in Norpar 12 (Example 7); type: physicochemical; details: 30 mg on 18 gsm honeycomb, estimated surface area 2199 cm^2, wet dosed in Norpar 12, 28° C., low airflow
Description: A study involving dosing 18 gsm paper configured into a honeycomb format with an estimated surface area of 2199 cm^2 with metofluthrin (30 mg) was made to determine the emanation rate from this substrate.
The metofluthrin was dissolved in Norpar 12 and dosed on to the substrate using the wet dosing technique. The papers were hung and aged in a chamber at 28° C. with low airflow for up to a maximum of 80 hours. The amount of metofluthrin remaining on the paper substrate was measured from time 0 hours to 80 hours. The plot obtained for the amount of metofluthrin remaining on samples as a function of time was used to calculate the release rate from this format.

Aedes aegypti mosquitoes = assay: Knockdown studies in a 40 m^3 test chamber with paper dosed with metofluthrin; type: in vivo
Description: The inventors have carried out a number of knockdown studies for the control of mosquitoes using paper surfaces impregnated and/or dosed with the vapour active insecticide metofluthrin. The active was applied to each paper surface as a solution in acetone/ethanol (1:1).
Tests were carried out in a 40 m^3 test chamber. The temperature was approximately 28° C. Mixed sex Aedes aegypti mosquitoes were used, aged for 7-10 days after emergence. Up to 200 mosquitoes were introduced into the chamber for each test. Three replicates were done for each treatment. Knocked down mosquitoes were collected at the end of each assessment period and counted.
Knockdown studies against the Dengue mosquito Aedes aegypti using three surface areas a) A2, b) A3 and c) A4 of 18 gsm paper in the above test chamber were carried out. Each paper was treated with 150 mg of metofluthrin. A mosquito coil containing 0.04% Prallethrin was included as a reference control.
A knockdown study against the Dengue mosquito Aedes aegypti using aged paper was conducted. The test involved treating 18 gsm paper of A4 surface area with 2 mg of metofluthrin at 28° C. for up to 12 hours. The treated paper was hung in the centre of the above chamber. A mosquito coil containing 0.04% prallethrin was included in the trial as a reference control.

[5] = Emanation rate from 50 gsm A4 paper dosed with different amounts (Example 6); type: physicochemical; details: A4 50 gsm paper, dry dosing in acetone/ethanol (1:1), 25 mg to approximately 5 mg, 28° C., low air flow
Description: A study involving dosing 50 gsm paper with different amounts of metofluthrin was made to investigate the affect on the emanation rate from this substrate. Three samples of white (A4) paper (50 gsm) each having a surface area of 1250 cm^2 were dosed with metofluthrin (25, 20 and 14 mg) dissolved in acetone/ethanol (1:1) using the dry dosing technique. The papers were aged in a chamber at 28° C. with low air flow for up to a maximum of 214 hours. The amount of metofluthrin remaining on the paper substrate was measured from time 0 hours to 214 hours. The plot obtained for the emanation rate of metofluthrin from the 25 mg dosed samples was used to estimate the time it would take for 20 and 14 mg of metofluthrin to remain on the samples.

[6] = Emanation rate from 30 gsm paper dosed with different solvents (Example 8); type: physicochemical; details: 14 mg on A4 30 gsm paper, 28° C.
Description: A study of the metofluthrin emanation rate from 30 gsm paper dosed with different solvents was made.
White (A4) paper (30 gsm) having a surface area of […] was dosed with metofluthrin (14 mg) prepared in a range of solvents, as listed below. The papers were aged in a chamber at 28° C. with low air flow for up to a maximum of 168 hours. The amount of metofluthrin remaining on the paper substrate was measured from time 0 hours to 168 hours. The following solvents were used:
The inventors have concluded that linear release kinetics are observed for metofluthrin emanating from paper substrates and accordingly, the line of best fit was fitted to obtain the linear equation to enable the rate of emanation to be determined.

In the case of `CC1(C)[C@H](C=C(Cl)Cl)[C@H]1C(=O)OCc1c(F)c(F)c(F)c(F)c1F` [fenfluthrin], the “vapour pressure (volatility at ambient temperature)” value (“vapour pressure” for short) ([1]; 20° C.) is listed as 1 mPa.

For `C#CC(OC(=O)C1C(C=C(C)C)C1(C)C)/C(C)=C/CC` (centres unmarked) [empenthrin], the “vapour pressure” value ([1]; 23.6° C.) is listed as 14 mPa.

In the case of `Cc1c(F)c(F)c(COC(=O)[C@@H]2[C@H](/C=C(\Cl)C(F)(F)F)C2(C)C)c(F)c1F` (racemic) [tefluthrin], the “vapour pressure” value ([1]; 20° C.) is listed as 8.4 mPa and the “vapour pressure” value ([1]; 40° C.) is listed as 50 mPa.

With `CC=CC1C(C(=O)OCc2c(F)c(F)c(COC)c(F)c2F)C1(C)C` (racemic) [metofluthrin, 2,3,5,6-tetrafluoro-4-(methoxymethyl)benzyl-(EZ)-(1RS,3RS;1RS,3SR)-2,2-dimethyl-3-(prop-1-enyl)cyclopropanecarboxylate] the “Release Rate Index” value ([2]; solvent Dowanol DPM, wet dosing, relative to acetone/ethanol) was 1.20, the “Release Rate Index” value ([2]; solvent Dowanol TPM, wet dosing, relative to acetone/ethanol) was 1.24 and the “Release Rate Index” value ([2]; solvent Isopar L, wet dosing, relative to acetone/ethanol) was 1.75. For the same molecule, the “Release Rate Index” value ([2]; solvent Sasol C12-13, wet dosing, relative to acetone/ethanol) was 1.63, the “Release Rate Index” value ([2]; solvent acetone/ethanol (1:1), dry dosing (reference = 1)) was 1.00 and the “Release Rate Index” value ([2]; solvent n-pentane, dry dosing, relative to acetone/ethanol) was 1.50. For the same molecule, the “metofluthrin recovered from paper substrate (%)” value (shortened to “metofluthrin recovered … (%)”) ([3]; packaging APET, dry dosing, acetone/ethanol (1:1), 1 week at 55° C.) was 87%, the “metofluthrin recovered … (%)” value ([3]; packaging APET, dry dosing, acetone/ethanol (1:1), 2 weeks at 55° C.) was 82% and the “metofluthrin recovered … (%)” value ([3]; packaging APET, wet dosing, Exxsol D80, 1 week at 55° C.) was 95%. The “metofluthrin recovered … (%)” value ([3]; packaging APET, wet dosing, Exxsol D80, 2 weeks at 55° C.) was 100%, the “metofluthrin recovered … (%)” value ([3]; packaging Acrylonitrile methyl acrylate copolymer, wet dosing, Norpar 12, 1 week at 55° C.) was 98% and the “metofluthrin recovered … (%)” value ([3]; packaging Acrylonitrile methyl acrylate copolymer, wet dosing, Norpar 12, 2 weeks at 55° C.) was 99%. The “metofluthrin recovered … (%)” value ([3]; packaging Aluminium foil, dry dosing, acetone/ethanol (1:1), 1 week at 55° C.) was 99%, the “metofluthrin recovered … (%)” value ([3]; packaging Aluminium foil, dry dosing, acetone/ethanol (1:1), 2 weeks at 55° C.) was 98% and the “metofluthrin recovered … (%)” value ([3]; packaging Aluminium foil, wet dosing, Exxsol D80, 1 week at 55° C.) was 99%. For the same molecule, the “metofluthrin recovered … (%)” value ([3]; packaging Aluminium foil, wet dosing, Exxsol D80, 2 weeks at 55° C.) was 100%, the “metofluthrin recovered … (%)” value ([3]; packaging CPET, dry dosing, acetone/ethanol (1:1), 1 week at 55° C.) was 98% and the “metofluthrin recovered … (%)” value ([3]; packaging CPET, dry dosing, acetone/ethanol (1:1), 2 weeks at 55° C.) was 99%. For the same molecule, the “metofluthrin recovered … (%)” value ([3]; packaging CPET, wet dosing, Exxsol D80, 1 week at 55° C.) was 96%, the “metofluthrin recovered … (%)” value ([3]; packaging CPET, wet dosing, Exxsol D80, 2 weeks at 55° C.) was 100% and the “metofluthrin recovered … (%)” value ([3]; packaging Glass (bottle), dry dosing, acetone/ethanol (1:1), 1 week at 55° C.) was 90%. The “metofluthrin recovered … (%)” value ([3]; packaging Glass (bottle), dry dosing, acetone/ethanol (1:1), 2 weeks at 55° C.) was 81%, the “metofluthrin recovered … (%)” value ([3]; packaging Glass (bottle), wet dosing, Exxsol D80, 1 week at 55° C.) was 100% and the “metofluthrin recovered … (%)” value ([3]; packaging Glass (bottle), wet dosing, Exxsol D80, 2 weeks at 55° C.) was 98%. The “metofluthrin recovered … (%)” value ([3]; packaging PEPET, wet dosing, Norpar 12, 1 week at 55° C.) was 78%, the “metofluthrin recovered … (%)” value ([3]; packaging PEPET, wet dosing, Norpar 12, 2 weeks at 55° C.) was 77% and the “metofluthrin recovered … (%)” value ([3]; packaging PVC, dry dosing, acetone/ethanol (1:1), 1 week at 55° C.) was 64%. For the same molecule, the “metofluthrin recovered … (%)” value ([3]; packaging PVC, dry dosing, acetone/ethanol (1:1), 2 weeks at 55° C.) was 46%, the “metofluthrin recovered … (%)” value ([3]; packaging PVC, wet dosing, Exxsol D80, 1 week at 55° C.) was 73% and the “metofluthrin recovered … (%)” value ([3]; packaging PVC, wet dosing, Exxsol D80, 2 weeks at 55° C.) was 44%. The “metofluthrin recovered … (%)” value ([3]; packaging heat sealable polyester films, dry dosing, acetone/ethanol (1:1), 2 weeks at 55° C.) was 92%, the “metofluthrin recovered … (%)” value ([3]; packaging heat sealable polyester films, wet dosing, Exxsol D80, 2 weeks at 55° C.) was 100% and the emanation rate [4] was 0.22 mg/h. For the same molecule, the knockdown (Aedes aegypti mosquitoes; 2 mg on A4 18 gsm paper aged at 28° C., for up to 4 hours, 40 m^3 chamber) was “greater than 40%”, the “effectiveness relative to control (mosquito coil 0.04% prallethrin)” value (Aedes aegypti mosquitoes; 2 mg on A4 18 gsm paper, at 4 hours of aging at 28° C.) was “twice as effective as the control” and the “knockdown effectiveness compared with reference control” value (Aedes aegypti mosquitoes; A2, A3 and A4 18 gsm paper each treated with 150 mg, 40 m^3 chamber, approx. 28° C., control = mosquito coil containing 0.04% Prallethrin) was “more effective than the control”. For the same molecule, the “emanation rate when varying initial amount dosed” value [5] was “constant”, the “Release Rate Index” value ([6]; solvent Acetone/ethanol (1:1), dry dosing (reference = 1)) was 1.00 and the “Release Rate Index” value ([6]; solvent Exxsol D40, wet dosing, relative to acetone/ethanol) was 1.40. For the same molecule, the “Release Rate Index” value ([6]; solvent Exxsol D80, wet dosing, relative to acetone/ethanol) was 1.41, the “Release Rate Index” value ([6]; solvent Exxsol D140, wet dosing, relative to acetone/ethanol) was 0.25 and the “Release Rate Index” value ([6]; solvent HoTung C11-14, wet dosing, relative to acetone/ethanol) was 1.37. For the same molecule, the “Release Rate Index” value ([6]; solvent Isopar G, wet dosing, relative to acetone/ethanol) was 1.58.
